Data as given in patent publication US11452731B2, “Method of treating and preventing loss of cognition” (ENDORECHERCHE, INC., priority 2009, dated 2022).
pIC50: −log10 of the molar value. Read-outs that look alike come from different tables or passages of the source. Each block holds one compound with its values, some of them ahead of it.

What was measured:
[1] = 12-month treatment of ovariectomized rats with DHEA alone or with Flutamide or EM-800: bone histomorphometry, bone markers, serum lipids; type: in vivo, rat; settings: added to DHEA, OVX rats, 12 months
human Ishikawa cells = test: Alkaline phosphatase activity in human endometrial adenocarcinoma Ishikawa cells (Example 6)
[2] = system: MCF-7 human breast cancer cells; test: Proliferation (DNA content) of human breast cancer MCF-7 cells (Example 7); type: cell-based; settings: for pIC50: Homo sapiens, read-out: Inhibition of 1 nM E2 stimulation of DNA by tested compounds IC50
Description: MCF-7 human breast cancer cells were obtained from the American Type Culture Collection #HTB 22 at passage 147 and routinely grown in phenol red-free Dulbecco's Modified Eagle's-Ham's F12 medium, the supplements mentioned above and 5% FBS. The MCF-7 human breast adenocarcinoma cell line was derived from the pleural effusion of a patient. MCF-7 cells were used between passages 148 and 165 and subcultured weekly
Thereafter, medium was replaced with fresh medium containing the indicated concentrations of compounds diluted from 1000×stock solutions in 99% redistilled ethanol in the presence or absence of E2. Control cells received only the ethanolic vehicle (0.1% EtOH, v/v). Cells were incubated for the specified time intervals with medium changes at 2- or 3-day intervals. Cell number was determined by measurement of DNA content.
All results are expressed as means±SEM.

[3] = Uterine and vaginal weight in ovariectomized BALB/c mice treated orally for 9 days with or without estrone (Example 3); type: in vivo; settings: for inhibition of estrone-stimulated uterine weight / inhibition of vaginal weight (estrone-stimulated): OVX mice + estrone, oral 9 days
Procedure: Female BALB/c mice (BALB/cAnNCrlBR) weighing 18-20 g were obtained from Charles-River, Inc. (St-Constant, Quebec, Canada) and housed 5 per cage in a temperature (23±1° C.)- and light (12 h light/day, lights on at 7:15)-controlled environment. The mice were fed rodent chow and tap water ad libitum. The animals were ovariectomized (OVX) under Isoflurane anesthesia via bilateral flank incisions and randomly assigned to groups of 10 animals. Ten mice were kept intact as controls.
In the second experiment (Table 6), TSE 424 was administered orally by gavage once daily at doses of 1, 3, 10 or 30 μg/animal for 9 days, starting 2 days after ovariectomy. In both experiments, to evaluate the antiestrogenic activity, treatment with estrone (E1, […], s.c. injection, twice daily) was started 5 days post-ovariectomy and was administered for a 6 day-period. Compounds were dissolved in ethanol (4% final concentration) and administered in 0.4% methylcellulose. Mice in the intact and OVX control groups received the vehicle alone (4% ETOH-0.4% methylcellulose) during the 9-day period. The animals were killed by exsanguination at the abdominal aorta on the 11th morning following ovariectomy. The uteri and vagina were rapidly dissected, weighed, and kept in 10% buffered formalin for further histologic examination.

[4] = 26-week treatment of ovariectomized rats: lumbar spine BMD, total body fat, serum cholesterol, ALP (Example 4, experiment 2); type: in vivo, rat; settings: OVX rats, 26 weeks
Procedure: Ten to twelve week-old female Sprague-Dawley rats (Crl:CD(SD)Br) (Charles River Laboratory, St-Constant, Canada) weighing approximately 220-270 g at start of treatment were used. […] The animals were housed individually and were allowed free access to tap water and a pelleted certified rodent feed (Lab Diet 5002, Ralston Purina, St-Louis, Mo.). Experiments were conducted in an animal facility approved by the Canadian Council on Animal Care (CCAC) and the Association for Assessment and Accreditation of Laboratory Animal Care (AAALAC) in accordance with the CCAC Guide for Care and Use of Experimental Animals. […] Treatments were initiated on day 2 of the study and were performed once daily during 26 weeks. In both experiments, animals not receiving a test article were treated with the appropriate vehicle alone during the same period. […] QDR 4500A, Hologic, Waltham, Mass.) and a Regional High Resolution Scan software. […] Samples were processed for serum preparation and frozen at -80° C. until assay. Serum cholesterol levels and alkaline phospatase activity (ALP) were determined using the Boehringer Mannheim Diagnostic Hitachi 911 Analyzer (Boehringer Mannheim Diagnostic Laboratory Systems).

[5] = 5-week treatment of ovariectomized rats with SERMs alone or with DHEA: BMD of lumbar spine, femur, tibia (Example 5); type: in vivo, rat; settings: OVX rats, 5 weeks
Procedure: Ten to twelve week-old female Sprague-Dawley rats (Crl:CD(SD)Br) (Charles River Laboratory, St-Constant, Canada) weighing approximately 220-270 g at start of treatment were used. The animals were acclimatized to the environmental conditions (temperature: 22±3° C.; humidity: 50±20%; 12-h light-12-h dark cycles, lights on at 07:15 h) for at least 1 week before starting the experiments. The animals were housed individually and were allowed free access to tap water and a pelleted certified rodent feed (Lab Diet 5002, Ralston Purina, St-Louis, Mo.). Experiments were conducted in an animal facility approved by the Canadian Council on Animal Care (CCAC) and the Association for Assessment and Accreditation of Laboratory Animal Care (AAALAC) in accordance with the CCAC Guide for Care and Use of Experimental Animals.
On day 1 of the study, the animals of the appropriate groups were bilaterally ovariectomized (Ovx) under isoflurane anesthesia. The DHEA was applied topically on the dorsal skin as a solution in 50% ethanol-50% propylene glycol while the tested SERMs were administered as suspension in 0.4% methylcellulose by oral gavage. Treatments were initiated on day 2 of the study and were performed once daily during 5 weeks.
After 5 weeks of treatment, individual rats under Isoflurane anesthesia had their lumbar spine, femur and tibia scanned using dual energy x-ray absorptiometry (DEXA; QDR 4500A, Hologic, Waltham, Mass.) and a Regional High Resolution Scan software. The bone mineral density (BMD) of the lumbar spine (vertebrae L2 to L4), distal femoral metaphysis (DFM) and proximal tibial metaphysis (PTM) were determined.

[6] = Uterine, vaginal and body weight in estrone-supplemented OVX nude mice (Example 1); type: in vivo; settings: estrone alone
Procedure: DHEA was dissolved in 50% ethanol 50% propylene glycol. […] Tumors were measured once a week with Vernier calipers.

[7] = system: ZR-75-1 human breast cancer xenografts; test: Growth and response of human ZR-75-1 breast tumors in OVX nude mice, 7 antiestrogens for 161 days with or without estrone (Example 8); type: in vivo; settings: Estrone alone (OVX+E1), 23 weeks
Procedure: ZR-75-1 human breast cancer cells were obtained from the American Type Culture Collection (Rockville, Md.) and cultured in phenol red-free RPMI-1640 medium. […] (Saint-Constant, Québec, Canada). The mice (5 per cage) were housed in vinyl cages equipped with air filter lids, which were kept in laminar airflow hoods and maintained under pathogen-limiting conditions. The photoperiod was 12 hours of light and 12 hours of darkness (lights on at 07:15). Cages, bedding and food (Agway Pro-Lab R-M-H Diet #4018) were autoclaved before use. Water was autoclaved and provided ad libitum. Bilateral ovariectomy was performed under isoflurane-induced anesthesia. […] Randomization and treatments were started one week later. […] The estrone implants were then removed from the animals in the ovariectomized control group (OVX) and in groups that were to receive the antiestrogen alone. […] Tamoxifen was purchased from […]) while toremifene citrate was purchased from Orion (Espoo, Finland). […] The antiestrogen suspensions at the appropriate concentration were prepared each month, stored at 4° C. and used under constant agitation. Powder stock were hermetically stored at 4° C. […] Two perpendicular diameters were recorded and tumor area (mm2) was calculated using the formula: […] Tumor response was assessed at the end of the study or at death of each animal, if it occurred during the course of the experiment. In this case, only data of mice that survived for at least half of the study ([…]) were used in the tumor response analysis.

[8] = system: ZR-75-1 human breast cancer xenografts; test: Growth and response of human ZR-75-1 breast tumor xenografts in estrone-supplemented OVX nude mice, DHEA and/or EM-800 for 9.5 months (Example 1); type: in vivo
[9] = OVX mice, absence of estrone, 10 μg daily (no-effect statements: 1 μg and 10 μg)
[10] = Premarin 0.25 mg/kg, SERMs 2.5 mg/kg

SMILES: CC(C)C(=O)Nc1ccc([N+](=O)[O-])c(C(F)(F)F)c1 [FLU, Flutamide]
reversal of the stimulatory effect of DHEA on serum alkaline phosphatase [1]: 65%

pIC50 (human Ishikawa cells; Homo sapiens, Ishikawa, 120 h, read-out: Inhibition of 1 nM E2-induced stimulation of alkaline phosphatase IC50): 8.37 | pIC50 ([2]; MCF7, MCF-7, Experiment 2): 9.42
SMILES: Oc1ccc2c(c1)CC[C@H](c1ccccc1)[C@@H]2c1ccc(OCCN2CCCC2)cc1 [Lasofoxifene (free base)]
Emax (human Ishikawa cells; Homo sapiens, Ishikawa, 120 h, read-out: Maximal stimulation of alkaline phosphatase % of 1 nM E2 stimulation): 17.9% | Maximal inhibition of 1 nM E2-induced stimulation of alkaline phosphatase (human Ishikawa cells; Ishikawa cells, 5-day incubation, 1 nM E2): 85.14 (1) | Stimulation of DNA by tested compounds % of 1 nM E2 stimulation ([2]; MCF-7, Experiment 2): N.S. | inhibition of estrone-stimulated uterine weight ([3]; 1 μg daily): no inhibitory effect | inhibition of estrone-stimulated uterine weight ([3]; 3 μg daily): 25% | inhibition of estrone-stimulated uterine weight ([3]; 10 μg daily): 44% | inhibition of vaginal weight (estrone-stimulated) ([3]; 10 μg daily): 37% | stimulation of uterine weight (estrogenic effect) [3, 9]: 93% | stimulation of vaginal weight (estrogenic effect) [3, 9]: 73%

pIC50 ([2]; MCF7, MCF-7, Experiment 1): 8.43
SMILES: Cc1c(-c2ccc(O)cc2)n(Cc2ccc(OCCN3CCCCCC3)cc2)c2ccc(O)cc12 [TSE 424, 1-[[4-[2-(hexahydro-1H-azepin-1-yl)ethoxy]phenyl]methyl]-2-(4-hydroxyphenyl)-3-methyl-1H-indol-5-ol, acetate]
ALP [4]: 85 ± 6 IU | CHOLESTEROL (serum) [4]: 1.15 ± 0.05 mmol/L | TOTAL FAT [4]: 28.0 ± 1.8 % | reversal of the fat increase induced by estrogen deficiency [4]: 75% | LUMBAR SPINE BMD [4, 10]: 0.2252 ± 0.0058 g/cm^2 | LUMBAR SPINE Prevention of Bone Loss [4, 10]: 49% | UTERINE WEIGHT ([3]; OVX + E1, 1 μg): 105.5 ± 6.1 mg | VAGINAL WEIGHT ([3]; OVX + E1, 1 μg): 54.2 ± 3.0 mg | UTERINE WEIGHT ([3]; OVX + E1, 3 μg): 69.7 ± 4.4 mg | VAGINAL WEIGHT ([3]; OVX + E1, 3 μg): 47.2 ± 1.6 mg | UTERINE WEIGHT ([3]; OVX + E1, 10 μg): 42.1 ± 2.7 mg | VAGINAL WEIGHT ([3]; OVX + E1, 10 μg): 31.1 ± 2.3 mg | UTERINE WEIGHT ([3]; OVX + E1, 30 μg): 21.7 ± 1.7 mg | VAGINAL WEIGHT ([3]; OVX + E1, 30 μg): 16.7 ± 1.8 mg | inhibition of estrone-stimulated uterine weight ([3]; 1 μg daily): 12% | inhibition of estrone-stimulated uterine weight ([3]; 3 μg daily): 47% | inhibition of vaginal weight (estrone-stimulated) ([3]; 3 μg daily): 16% | inhibition of estrone-stimulated uterine weight ([3]; 10 μg daily): 74% | inhibition of vaginal weight (estrone-stimulated) ([3]; 10 μg daily): 56% | inhibition of estrone-stimulated uterine weight ([3]; 30 μg daily): 94% | inhibition of vaginal weight (estrone-stimulated) ([3]; 30 μg daily): 93% | UTERINE WEIGHT ([3]; OVX without E1, 3 μg): 18.3 ± 1.2 mg | VAGINAL WEIGHT ([3]; OVX without E1, 3 μg): 14.1 ± 1.2 mg | UTERINE WEIGHT ([3]; OVX without E1, 30 μg): 17.7 ± 1.6 mg | VAGINAL WEIGHT ([3]; OVX without E1, 30 μg): 15.3 ± 2.0 mg | DISTAL FEMORAL METAPHYSIS (DFM) BMD [5]: 0.2929 ± 0.0042 g/cm^2 | DISTAL FEMORAL METAPHYSIS (DFM) Prevention of Bone Loss [5]: 70% | PROXIMAL TIBIAL METAPHYSIS (PFM) BMD [5]: 0.2750 ± 0.0039 g/cm^2 | PROXIMAL TIBIAL METAPHYSIS (PFM) Prevention of Bone Loss [5]: 71% | LUMBAR SPINE (L2-L4) BMD ([5]; SERMs 2.5 mg/kg, DHEA 80 mg/kg): 0.2162 ± 0.0035 g/cm^2 | LUMBAR SPINE (L2-L4) Prevention of Bone Loss ([5]; SERMs 2.5 mg/kg, DHEA 80 mg/kg): 53%

SMILES: C[C@]12CC[C@@H]3c4ccc(O)cc4CC[C@H]3[C@@H]1CCC2=O [E1, estrone]
UTERINE WEIGHT [6]: 132 ± 8 mg | VAGINAL WEIGHT [6]: 31 ± 2 mg | increase in ZR-75-1 tumor size [7]: 707% | UTERINE WEIGHT ([3]; OVX + E1 alone): 118.3 ± 6.0 mg | VAGINAL WEIGHT ([3]; OVX + E1 alone): 53.4 ± 2.8 mg | Category of response: Complete (%) ([8]; E1 0.5 μg alone): 0 (0) % | Category of response: Complete (Number) ([8]; E1 0.5 μg alone): 0 (0) | Category of response: Partial (%) ([8]; E1 0.5 μg alone): 0 (0) % | Category of response: Partial (Number) ([8]; E1 0.5 μg alone): 0 (0) | Category of response: Progression (%) ([8]; E1 0.5 μg alone): 87.5% | Category of response: Progression (Number) ([8]; E1 0.5 μg alone): 14 | Category of response: Stable (%) ([8]; E1 0.5 μg alone): 12.5% | Category of response: Stable (Number) ([8]; E1 0.5 μg alone): 2 | Category of response: Complete (%) ([8]; E1 0.5 μg alone, listed as estrone): 0% | Average tumor weight at end of experiment ([8]; estrone 0.5 μg alone (control E1-supplemented OVX mice)): 1.12 ± 0.26 g | increase in ZR-75-1 tumor size ([8]; estrone 0.5 μg s.c. daily alone, 291 days (9.5 months)): 9.4 fold
